Source: the NIST ThermoML archive (doi:10.1021/je700245a)

Test: xn = mol fraction of the nth substance listed
Details: 101 kPa, Liquid

CN(CCO)CCO [N-methyldiethanolamine] + CCO
speed of sound [m/s], Sing-around technique in a fixed-path interferometer
Details	288.15 K	293.15 K	298.15 K	303.15 K	308.15 K	313.15 K
x1 = 0.0049	1183.1	1166	1149.2	1132.3	1114.8	1098.8
x1 = 0.0253	1201.7	1184.9	1168	1151.2	1134.5	1117.9
x1 = 0.0524	1222.5	1205.9	1189.3	1172.7	1156.3	1139.8
x1 = 0.102	1260.9	1244.5	1228.1	1211.8	1195.6	1179.5
x1 = 0.1629	1301	1286	1272.9	1257.3	1241.5	1225.8
x1 = 0.2474	1353	1338	1325	1310	1293	1278
x1 = 0.3713	1415	1399.7	1384.6	1369.4	1354.1	1339
x1 = 0.4806	1460	1444	1429.2	1414	1398.8	1383.7
x1 = 0.5506	1486	1470	1457	1439	1423.8	1408.7
x1 = 0.7035	1536	1520	1500	1484.3	1468.9	1453.6
x1 = 0.7916	1557	1542	1522	1505.6	1490.3	1475.1
x1 = 0.8688	1573.2	1557.7	1538	1520.8	1506.2	1491.5
x1 = 0.9415	1588.4	1572.9	1553	1535	1520.4	1506.1
x1 = 1	1598.8	1583.1	1564	1546	1531	1516

mass density [kg/m3]
Details	288.15 K	293.15 K	298.15 K	303.15 K	308.15 K	313.15 K
x1 = 0.0049	797.34	793.08	788.79	784.48	779.2	775.41
x1 = 0.0253	810.93	806.7	802.07	797.45	792.51	788.32
x1 = 0.0524	826.23	822.03	817.31	812.97	807.85	803.95
x1 = 0.102	855.32	850.46	845.79	841.06	835.99	831.61
x1 = 0.1629	883.86	879	874.36	869.83	864.64	860.34
x1 = 0.2474	916.48	911.75	907.18	902.4	897.2	892.65
x1 = 0.3713	952.15	947.5	942.7	938.24	933.17	928.65
x1 = 0.4806	977.2	973.1	968.28	963.57	958.75	954
x1 = 0.5506	991.1	986.7	982.08	977.52	972.75	967.98
x1 = 0.7035	1013.7	1009.24	1005.04	1000.62	996.08	991.6
x1 = 0.7916	1024.1	1019.88	1015.3	1011.24	1006.79	1002.49
x1 = 0.8688	1032.69	1028.4	1024.2	1019.64	1015.81	1011.97
x1 = 0.9415	1038.68	1034.96	1031.19	1027.42	1023.63	1019.82
x1 = 1	1044.32	1040.6	1036.83	1033.06	1029.26	1025.45

CCO [ethanol] + CN(CCO)CCO
Sing-around technique in a fixed-path interferometer, x2 = 0
Details	speed of sound [m/s]
288.15 K	1179
293.15 K	1162
298.15 K	1144.9
303.15 K	1128
308.15 K	1111.1
313.15 K	1094.3

x2 = 0
Details	mass density [kg/m3]
288.15 K	793.6
293.15 K	789.35
298.15 K	785.06
303.15 K	780.76
308.15 K	776
313.15 K	772.03

CCO [ethanol] + OCCN(CCO)CCO
x2 = 0
Details	mass density [kg/m3]	speed of sound [m/s]
288.15 K	793.6	1179
293.15 K	789.35	1162
298.15 K	785.06	1144.9
303.15 K	780.76	1128
308.15 K	776	1111.1
313.15 K	772.03	1094.3

OCCN(CCO)CCO [triethanolamine] + CCO
Details	mass density [kg/m3]	speed of sound [m/s]
288.15 K, x1 = 0.0075	799.61	1185.2
288.15 K, x1 = 0.0184	808.53	1193.4
288.15 K, x1 = 0.0304	818	1202.1
288.15 K, x1 = 0.0622	840.61	1225.5
288.15 K, x1 = 0.1385	889.41	1277
288.15 K, x1 = 0.2275	935.37	1333.2
288.15 K, x1 = 0.335	979.49	1397
288.15 K, x1 = 0.4675	1021.75	1453.1
288.15 K, x1 = 0.6413	1064.29	1528
288.15 K, x1 = 0.779	1091.59	1558.4
288.15 K, x1 = 0.8537	1104.43	1597.9
288.15 K, x1 = 0.9328	1116.76	1617.3
288.15 K, x1 = 1	1126.19	1640.5
293.15 K, x1 = 0.0075	795.43	1168.3
293.15 K, x1 = 0.0184	804.51	1176.9
293.15 K, x1 = 0.0304	813.73	1185.9
293.15 K, x1 = 0.0622	836.37	1210
293.15 K, x1 = 0.1385	885.58	1262.7
293.15 K, x1 = 0.2275	931.77	1320
293.15 K, x1 = 0.335	976.06	1385
293.15 K, x1 = 0.4675	1018.53	1442.5
293.15 K, x1 = 0.6413	1061.37	1516.6
293.15 K, x1 = 0.779	1088.73	1546.8
293.15 K, x1 = 0.8537	1101.67	1585.3
293.15 K, x1 = 0.9328	1114.01	1604.6
293.15 K, x1 = 1	1123.42	1625.6
298.15 K, x1 = 0.0075	791.34	1151.4
298.15 K, x1 = 0.0184	800.35	1160.4
298.15 K, x1 = 0.0304	809.59	1170
298.15 K, x1 = 0.0622	832.35	1194.4
298.15 K, x1 = 0.1385	881.74	1248.6
298.15 K, x1 = 0.2275	928.14	1307.1
298.15 K, x1 = 0.335	972.67	1373.1
298.15 K, x1 = 0.4675	1015.52	1431.6
298.15 K, x1 = 0.6413	1058.61	1505.9
298.15 K, x1 = 0.779	1086.14	1536.4
298.15 K, x1 = 0.8537	1099.23	1574.3
298.15 K, x1 = 0.9328	1111.63	1593.8
298.15 K, x1 = 1	1120.99	1614.5
303.15 K, x1 = 0.0075	786.78	1134.6
303.15 K, x1 = 0.0184	796.27	1143.9
303.15 K, x1 = 0.0304	805.5	1153.8
303.15 K, x1 = 0.0622	828.41	1178.9
303.15 K, x1 = 0.1385	877.88	1234.5
303.15 K, x1 = 0.2275	924.44	1294.3
303.15 K, x1 = 0.335	969.17	1361.4
303.15 K, x1 = 0.4675	1012.27	1420.9
303.15 K, x1 = 0.6413	1055.67	1496
303.15 K, x1 = 0.779	1083.38	1526.6
303.15 K, x1 = 0.8537	1096.33	1564.5
303.15 K, x1 = 0.9328	1108.88	1584.2
303.15 K, x1 = 1	1118.21	1604.5
308.15 K, x1 = 0.0075	782.53	1117.9
308.15 K, x1 = 0.0184	791.61	1127.4
308.15 K, x1 = 0.0304	801.05	1137.7
308.15 K, x1 = 0.0622	824.11	1163.4
308.15 K, x1 = 0.1385	873.56	1220.4
308.15 K, x1 = 0.2275	920.24	1281.5
308.15 K, x1 = 0.335	965.2	1349.9
308.15 K, x1 = 0.4675	1008.69	1410.5
308.15 K, x1 = 0.6413	1052.55	1486.6
308.15 K, x1 = 0.779	1080.43	1517.4
308.15 K, x1 = 0.8537	1093.46	1555.6
308.15 K, x1 = 0.9328	1106.09	1575.4
308.15 K, x1 = 1	1115.38	1595.5
313.15 K, x1 = 0.0075	778.51	1101.2
313.15 K, x1 = 0.0184	787.72	1111.1
313.15 K, x1 = 0.0304	797.32	1121.6
313.15 K, x1 = 0.0622	820.47	1148
313.15 K, x1 = 0.1385	869.89	1206.4
313.15 K, x1 = 0.2275	916.68	1268.8
313.15 K, x1 = 0.335	961.76	1338.4
313.15 K, x1 = 0.4675	1005.44	1400.1
313.15 K, x1 = 0.6413	1049.55	1477.3
313.15 K, x1 = 0.779	1077.53	1508.5
313.15 K, x1 = 0.8537	1090.66	1547
313.15 K, x1 = 0.9328	1103.23	1567.1
313.15 K, x1 = 1	1112.57	1586
